Series [1] concerns the target T1, MMP-3CD (stromelysin-1 catalytic domain) (Homo sapiens, UniProt P08254).
T1 construct: Experiments were carried out with the catalytic domains of the proteinases; made in house; host or cells: Escherichia coli
The series can be described thus: Thiopeptolide substrate assay, stromelysin-1 catalytic domain. Type of series: biochemical. The conditions noted are these: thiopeptolide substrate; catalytic domain. How it is done: (§1) Experiments were carried out with the catalytic domains of the proteinases. […] IC50 values were determined using a thiopeptolide substrate, Ac-Pro-Leu-Gly-thioester-Leu-Leu-Gly-OEt (ye Q. -Z., Johnson L. L., Hupe D. J., and Baragi V., “Purification and Characterization of the Human Stromelysin Catalytic Domain Expressed in Escherichia coli,” Biochemistry, 1992;31:11231-11235; ye Q. -Z., Johnson L. L., yu A. E., and Hupe D., “Reconstructed 19 kDa catalytic domain of gelatinase A is an active proteinase,” Biochemistry, 1995;34:4702-4708.) MMP-13CD was expressed from a synthetic gene and purified from Escherichia coli cell culture according to a previously described method (ye Q. -Z., Johnson L. L., and Baragi V., “Gene synthesis and expression in E. coli for PUMP, a human matrix metalloproteinase,” Biochemical and Biophysical Research Communications, 1992;186:143-149.)

In series [2] the target is T2, MMP-2CD (gelatinase A catalytic domain) (Homo sapiens, UniProt P08253, DEL220-393).
T2 construct: Experiments were carried out with the catalytic domains of the proteinases
T2 sequence (P08253 with tags, fused parts or gaps DEL220-393): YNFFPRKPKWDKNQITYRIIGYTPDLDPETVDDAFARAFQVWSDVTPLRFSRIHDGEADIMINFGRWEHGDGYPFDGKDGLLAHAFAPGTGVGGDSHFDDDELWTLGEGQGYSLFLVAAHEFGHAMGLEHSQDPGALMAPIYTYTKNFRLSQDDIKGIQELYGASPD
As to the kind of experiment: Thiopeptolide substrate assay, gelatinase A catalytic domain. As to conditions: thiopeptolide substrate; catalytic domain. Type of series: biochemical. How it is done:
as §1

The target of series [3] is T3, MMP-13CD (collagenase-3 catalytic domain) (Homo sapiens, UniProt P45452).
T3 construct: Experiments were carried out with the catalytic domains of the proteinases; made in house; host or cells: Escherichia coli
The series can be described thus: Thiopeptolide substrate assay, collagenase-3 catalytic domain. As to conditions: thiopeptolide substrate; catalytic domain. Type of series: biochemical. How it is done: as §1

Structures are written as SMILES.

Broadly, the IC50 is the point on the concentration scale where inhibition reaches its midpoint. Higher therefore signals weaker potency in that assay. For orientation: melting point means the temperature, or range, at which the solid turns liquid.

T1 sequence (P08254 100-272 limits assumed): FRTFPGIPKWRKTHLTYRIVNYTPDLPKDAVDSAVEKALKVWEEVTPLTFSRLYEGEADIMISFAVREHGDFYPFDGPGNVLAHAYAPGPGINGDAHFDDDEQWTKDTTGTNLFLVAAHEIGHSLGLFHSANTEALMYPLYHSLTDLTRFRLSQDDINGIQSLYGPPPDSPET

Consider `O=C(O)CCC(=O)c1ccc(NC(=O)c2ccccc2F)cc1` [Example 5, 4-[4-(2-Fluoro-benzoylamino)-phenyl]-4-oxo-butyric acid], for which the melting point is 191 to 193 °C. It took 9.8 µM to reach half-maximal inhibition in series [1] (IC50). The molecule further yielded a half-maximal inhibitory concentration (IC50) in series [2] of 1.9 µM.
On the same counts, the results for `O=C(O)CCC(=O)c1ccc(NC(=O)c2cccc(F)c2)cc1` [Example 4, 4-[4-(3-Fluoro-benzoylamino)-phenyl]-4-oxo-butyric acid] are 239 to 241 °C, 6.2 µM and 1.9 µM.
Consider `O=C(O)CCC(=O)c1ccc(NC(=O)c2ccc(F)cc2)cc1` [Example 6, 4-[4-(4-Fluoro-benzoylamino)-phenyl]-4-oxo-butyric acid], for which the melting point lay in the range of 253 to 255 °C. For the same molecule, in series [1], the midpoint of inhibition, the IC50, lay at 2.8 µM. Besides, the half-maximal inhibitory concentration (IC50) in series [3] amounted to 85 µM. The molecule also had an IC50 in series [2] of 1.7 µM.
As for `CCCCC(=O)Nc1ccc(C(=O)CCC(=O)O)cc1` [Example 3, 4—oxo-4-(4-pentanoylamino-phenyl)-butyric acid], the melting point lay in the range of 153 to 155 °C. This molecule displayed an IC50 in series [1] of 8.15 µM. Besides, the 50% inhibitory concentration (IC50) in series [2] turned out to be 9.5 µM.

For the origin of these results see patent US6624196B2, “Benzene butyric acids and their derivatives as inhibitors of matrix metalloproteinases” (Warner-Lambert Company, priority 1999, dated 2003).
